# Experimental data published in article PMC6017357, “In Vitro Inhibitory Effects of Synthetic Cannabinoid EAM-2201 on Cytochrome P450 and UDP-Glucuronosyltransferase Enzyme Activities in Human Liver Microsomes” (Molecules : A Journal of Synthetic Chemistry and Natural …, 2018).
# Molecular target: T1, CYP2B6 (Homo sapiens, UniProt P20813)
# T1 construct: from tissue; host or cells: ultrapooled human liver microsomes
# T1 sequence (P20813 1-491): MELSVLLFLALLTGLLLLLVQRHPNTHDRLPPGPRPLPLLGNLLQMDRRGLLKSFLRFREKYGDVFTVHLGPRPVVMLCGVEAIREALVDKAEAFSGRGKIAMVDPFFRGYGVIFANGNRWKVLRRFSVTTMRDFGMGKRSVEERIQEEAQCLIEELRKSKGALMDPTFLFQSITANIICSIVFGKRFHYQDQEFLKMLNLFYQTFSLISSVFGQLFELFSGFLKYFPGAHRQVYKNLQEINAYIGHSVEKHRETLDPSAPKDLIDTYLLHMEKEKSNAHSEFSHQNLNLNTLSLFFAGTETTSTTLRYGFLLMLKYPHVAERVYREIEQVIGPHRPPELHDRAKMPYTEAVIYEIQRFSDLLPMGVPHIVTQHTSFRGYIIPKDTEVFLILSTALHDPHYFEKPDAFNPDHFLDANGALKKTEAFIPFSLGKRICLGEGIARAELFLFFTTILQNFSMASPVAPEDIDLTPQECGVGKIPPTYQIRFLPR
# Experiment: CYP2B6-mediated bupropion hydroxylation in pooled human liver microsomes
# Type: in vitro ADME
# Conditions: up to 50 µM, without 30-min preincubation
# Method: The inhibitory effects (IC50 values) of EAM-2201 on CYP2B6-catalyzed bupropion 4-hydroxylase activity were determined in ultrapooled human liver microsomes using LC-MS/MS [41]. Each incubation mixture was prepared in a total volume of 100 µL as follows: pooled human liver microsomes (5.2 pmol CYP), 1.0 mM NADPH, 10 mM magnesium chloride, 50 mM potassium phosphate buffer (pH 7.4), various concentrations of EAM-2201 in DMSO (final 0.1–50 µM, 0.5% DMSO) and CYP2B6-selective substrate and 50 µM bupropion. After a 3-min preincubation at 37 °C, reactions were initiated by adding NADPH, followed by incubation for 15 min at 37 °C in a shaking water bath. […] Aliquots (5 µL) of the diluted supernatants were analyzed by LC-MS/MS. […]
# The metabolites formed from CYP substrates were simultaneously quantified using our previously described LC-MS/MS method. […] Quantification was performed by selected reaction monitoring (SRM) of the [M + H]^+ ion and the related product ion for each metabolite: acetaminophen, 152.1 > 110.3; N-desethylamodiaquine, 328.1 > 283.0; 7-hydroxycoumarin, 163.0 > 107.2; 4-hydroxybupropion, 256.1 > 238.0; 4′-hydroxydiclofenac, 312.0 > 231.1; 4′-hydroxy-mephenytoin, 235.1 > 150.1; 1′-hydroxybufuralol, 278.1 > 186.1; 1′-hydroxymidazolam, 341.9 > 324.0; ^13C2,^15N-acetaminophen, 155.1 > 111.2; and d9-1′-hydroxybufuralol, 287.2 > 187.0. […]
compound,measurement,value
"CCc1ccc(C(=O)c2cn(CCCCCF)c3ccccc23)c2ccccc12 [EAM-2201, (4-ethyl-1-naphthalenyl)[1-(5-fluoropentyl)-1H-indol-3-yl]-methanone]",inhibition of CYP2B6-mediated bupropion hydroxylation,negligibly inhibited
